The record followed here is PMC6911004, “Fragment-based screening identifies molecules targeting the substrate-binding ankyrin repeat domains of tankyrase” (Scientific Reports, 2019).

What all share (assay type): binding
Assay [1] has as its target T1, TNKS2 ARC5 (Homo sapiens, UniProt Q9H2K2).
T1 construct: followed by TNKS2 ARC5 (1 μL, 100 μM stock); His6-GST; made in house; host or cells: E. coli
Kind of assay: T2 relaxation-edited ligand-observed NMR assay. Conditions: DSF hit validation; for binding to TNKS2 ARC5 by ligand-observed NMR, in words: relaxation-edited and waterLOGSY; for competition with the 3BP2 TBM peptide by relaxation-edited NMR: ARC used for competition not given. From the text: (§1) 39 hits from the DSF screen were suitable for follow-up by ligand-observed NMR methods. We re-purchased fragments and performed T2 relaxation-edited (CPMG-edited) and waterLOGSY experiments for each fragment with TNKS2 ARC5. We explored saturation transfer difference (STD) NMR, also using TNKS2 ARC5, but the assay was not sensitive enough to produce a reliable binding signal, likely due to the relatively small size of a single ARC protein (data not shown). High ligand concentrations were required to achieve sufficient signal, which in turn could lead to false-positive hits due to non-specific binding.
Using the relaxation-edited assay, we tested each fragment in three independent measurements (Fig. 2C), unless we obtained two negative results (non-binding) in the first two experiments. […] As a negative NOE for the compound-only sample could indicate aggregation, we flagged these compounds as potentially problematic. We identified 14 fragments that bound to TNKS2 ARC5 by both relaxation-edited and waterLOGSY methods (0.78% hit rate). We next tested whether binding of these fragments occurred competitively with the 3BP2 TBM peptide, and also if they bound to TNKS2 ARC4, as competition with peptide binders at various different ARCs will be a prerequisite for an efficient substrate binding antagonist. Three fragments (1, 2, 3) bound to both TNKS2 ARC4 and ARC5 and were competitive with the TBM peptide (0.16% hit rate) (Fig. 2E). Three further fragments also bound to both ARCs, but were not TBM competitive by NMR.
(§2) Fragments were dispensed in duplicate into a 384-well plate (250 nL, 100 mM stock in DMSO). Wells were backfilled with DMSO (2.25 μL). Tankyrase ARC protein (47.5 μL in 25 mM HEPES, pH 7.5, 100 mM NaCl, 2 mM TCEP, 10% D2O; 20 μM final protein concentration in the assay) was added to the ‘protein’ samples; buffer only (47.5 μL) was added to the ‘compound-only’ samples. Solutions were transferred to 1.7 mm NMR tubes using a Gilson liquid handling system. ^1H NMR spectra were recorded, with the DMSO and water signals dampened. A relaxation spin filter was applied at 400 ms[65]. Data were processed using Bruker Topspin 3.14. Lines were broadened with LB = 3.0, and the baseline was corrected between 6.0–10.0 ppm. The average integral for all peaks between 6.0–10.0 ppm was calculated, and the difference between compound-only and compound-plus-protein samples was compared. A reduction in signal integrals of ≥15% was classified as a hit. For competitive experiments, 3BP2 16-mer peptide (100 μM) was added, and the spectra were recorded and processed as above. The variability in signal reduction in the relaxation-edited experiment was previously determined as approximately ± 10% (Liu et al., unpublished observations).

The target of assay [2] is T2, TNKS2 ARC4 (Homo sapiens, UniProt Q9H2K2).
T2 construct: The cell was filled with TNKS2 ARC4 (488–649); His6-GST; made in house; host or cells: E. coli
T2 sequence (Q9H2K2 488-649): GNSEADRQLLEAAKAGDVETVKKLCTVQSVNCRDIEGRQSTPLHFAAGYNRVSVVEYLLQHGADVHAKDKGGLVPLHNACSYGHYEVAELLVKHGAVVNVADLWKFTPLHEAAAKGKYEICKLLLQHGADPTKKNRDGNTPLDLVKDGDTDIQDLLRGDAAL
Kind of assay: T2 relaxation-edited ligand-observed NMR assay. As to conditions: for binding to TNKS2 ARC4 by ligand-observed NMR, in words: DSF hit validation. The method, then: We next sought close structural analogues of hit fragments 3 and 5 to gain early insights into structure-activity relationships (SAR) and binding modes of hit fragments. We initially tested the analogues using both relaxation-edited and waterLOGSY NMR assays against TNKS2 ARC4 (Table 1), followed by protein-observed NMR if binding was detected in both ligand-observed NMR experiments.
as §2

Assay [3] deals with T2, TNKS2 ARC4. Kind of assay: Fluorescence polarisation (FP) competition assay with Cy5-labelled TBM peptide probe. Conditions: for IC50: 5 nM Cy5-RSPPDGQS probe, 5 µM TNKS2 ARC4; for FP competition, result in words: peptide titrated up to 1 mM. The text has this:
Given the anticipated impairment of cell permeability by the N-terminal TBM arginine, we investigated whether the guanidine group could be substituted. To prioritise synthesis efforts, we followed an in-silico docking approach, exploring the importance of the positive charge and hydrogen bonding interactions, linker lengths/flexibility and side chain geometry (see Supplementary Materials and Methods for details). From commercially available side chain alternatives, we identified five potential candidates for R replacements: 1H-imidazole-5-pentanoic acid, 1H-imidazole-1-pentanoic acid, 7-aminoheptanoic acid, D-arginine and L-citrulline (Supplementary Fig. 1). We next synthesised 3BP2 TBM octapeptides, incorporating the five arginine substituents at position 1, followed by fluorescence polarisation (FP) assays to assess competition of the peptides with a Cy5-labelled TBM peptide probe (Supplementary Fig. 1). We used a 16-mer TBM peptide (LPHLQRSPPDGQSFRSW, W introduced to measure A280) derived from the model substrate 3BP2, a signalling adapter protein[4], as a positive control for a competitor, and a corresponding non-binding TBM peptide bearing a glycine-to-arginine substitution at position 6[4] as a negative control. […]
Fluorescence polarisation assay
Unlabelled arginine substituent peptides were titrated up to 1 mM in the presence of 5 nM of a labelled peptide probe (Cy5-RSPPDGQS, JPT Peptide Technologies) and 5 µM TNKS2 ARC4. 3BP2 16-mer peptide was used as a positive control, and the same peptide with the glycine at position 6 mutated to arginine (G6R) was used as a negative control. Plus F ProxiPlates (PerkinElmer) were used with a 2103 Envision Multilabel plate reader (PerkinElmer), fitted with 620 nm (excitation) and 688 nm (emission) filters. Filter bandwidths were 10 nm. A Nanodrop 2000 was used for measuring protein and probe concentrations by UV absorption. TNKS2 ARC4 protein was thawed from -80 ° C, and centrifuged at 13,000 […]
Two independent experiments were performed in technical duplicate. A 2´ stock solution containing TNKS2 ARC4 protein (10 µM) and fluorescently tagged probe (10 nM) in assay buffer (25 mM HEPES-NaOH pH 7.5, 100 mM NaCl, 1 mM TCEP, 0.01% CHAPS) was prepared. A 2-fold dilution series of untagged peptide in assay buffer was made (0 – 2 mM).
Protein and peptide stock solutions were mixed 1:1. Blank samples contained assay buffer only. The plate was sealed, centrifuged for 1 min at 1000 ´ g, and then incubated in the dark for 30 min before reading. Readings were taken with 50 flashes per well, and measured in millipolarisation (mP) units. Data were exported to Microsoft Excel, and analysed in GraphPad Prism 6.0. The means of technical duplicate values were calculated for both experiments, and FP values were plotted against unlabelled peptide concentration. Curves were normalised using the overall mean maximum and minimum FP values of the control 3BP2 TBM peptide. Curves were fitted using a non-linear regression, log(inhibitor) vs. response – variable slope (four parameters) model.
Multiple sequence alignments and amino acid identity mapping
Sequences of tankyrase ARCs were aligned using ClustalX (version 2.0) 4. […]
Supplementary Figure 1. Binding of TBM peptides containing arginine substituents to TNKS2 ARC4, measured in a fluorescence polarisation (FP) competition assay. Data points are means of technical duplicates from two independent experiments. […]
Background: In fluorescence polarisation assays a small probe gives low polarisation when free and higher when bound to something large.

The target of assay [4] is T1, TNKS2 ARC5. Kind of assay: WaterLOGSY NMR assay.
Text: as §1
Using the relaxation-edited assay, we tested each fragment in three independent measurements (Fig. 2C), unless we obtained two negative results (non-binding) in the first two experiments. […] As a negative NOE for the compound-only sample could indicate aggregation, we flagged these compounds as potentially problematic. We identified 14 fragments that bound to TNKS2 ARC5 by both relaxation-edited and waterLOGSY methods (0.78% hit rate). […]
Fragments were dispensed in duplicate into a 384-well plate (250 nL, 100 mM stock in DMSO). […] Solutions were transferred to 1.7 mm NMR tubes using a Gilson liquid handling system. ^1H NMR spectra were recorded, with the DMSO signal dampened. […]

Where a SMILES comes first, the peptide text is derived from it. [ ]: non-standard residue; d: D form.

T1 sequence (Q9H2K2 641-800): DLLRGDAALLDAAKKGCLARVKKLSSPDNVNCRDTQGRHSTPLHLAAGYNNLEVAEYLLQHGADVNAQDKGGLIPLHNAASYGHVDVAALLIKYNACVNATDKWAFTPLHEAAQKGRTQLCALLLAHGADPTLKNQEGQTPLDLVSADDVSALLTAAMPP

Take `COc1ccc2c(OC(C)=O)coc2c1` [compound 2]: on TNKS2 ARC5 [1], the “binding to TNKS2 ARC5 by ligand-observed NMR, in words” value is given as “bound” and the “competition with the 3BP2 TBM peptide by relaxation-edited NMR” value is “competitive”. Besides, the “binding to TNKS2 ARC4 by ligand-observed NMR, in words” value at TNKS2 ARC4 [2] is recorded as “bound”. In turn, `N=C(N)NCCC[C@H](N)C(=O)N[C@@H](CO)C(=O)N1CCC[C@H]1C(=O)N1CCC[C@H]1C(=O)N[C@@H](CC(=O)O)C(=O)NCC(=O)N[C@@H](CCC(N)=O)C(=O)N[C@@H](CO)C(=O)O` [8-mer RSPPDGQS TBM peptide, RSPPDGQS, reference compound] (H-RSPPDGQS-OH) registered an IC50 at TNKS2 ARC4 [3] of 34 µM. Consider `NC(=O)Cc1coc2ccc3ccccc3c12` [compound 4], for which the “T2 relaxation-edited: competition with 3BP2 TBM peptide” value at TNKS2 ARC4 [2] (3BP2 16-mer peptide 100 μM) is recorded as “competitive”. In turn, `N=C(N)NCCC[C@@H](N)C(=O)N[C@@H](CO)C(=O)N1CCC[C@H]1C(=O)N1CCC[C@H]1C(=O)N[C@@H](CC(=O)O)C(=O)NCC(=O)N[C@@H](CCC(N)=O)C(=O)N[C@@H](CO)C(=O)O` [D-arginine] (H-[dR]SPPDGQS-OH) showed a half-inhibitory concentration (IC50) at TNKS2 ARC4 [3] of 175 µM. Regarding `O=S(=O)(Nc1cccc(O)c1)c1ccc(Cl)cc1` [compound 1], at TNKS2 ARC5 [1], the “binding to TNKS2 ARC5 by ligand-observed NMR, in words” value is “bound” and the “competition with the 3BP2 TBM peptide by relaxation-edited NMR” value is listed as “competitive”. The “binding to TNKS2 ARC4 by ligand-observed NMR, in words” value at TNKS2 ARC4 [2] is “bound”. On TNKS2 ARC5 [4], the waterLOGSY result was “negative NOE signal”. For the molecule 7-aminoheptanoic acid, the “FP competition, result in words” value on TNKS2 ARC4 [3] is reported as “poor competition”. On the same count and under the same terms, with citrulline the entry was “poor competition”.

Broadly, the IC50 is the point on the concentration scale where inhibition reaches its midpoint. A lower IC50 goes with greater potency in that assay.
